Data published in US7374890B2, “Methods for identifying compounds that modulate ΔTRα2 activity” (University of Massachusetts, priority 2000, dated 2008).

Tests used:
[1] = molecular target: binding of p29^GFP vesicles to F-actin; test: modified in vitro actin binding assay with p29^GFP-labeled vesicles; format: biochemical, rat; conditions: 0-100 nM, 20 minutes at 37° C.; read-out: EC50, increase in quantity of p29^GFP bound to F-actin
Procedure: To define the specific region(s) of the myosin V tail that interact with the p29 vesicle, a series of deletion mutations were created based on the dominant negative effect of exogenous myosin V tail on p29 vesicle binding. Competition analysis of the myosin V deletion mutations on T4-dependent binding of p29 vesicles to F-actin was performed using a modified in vitro assay in which a GFP-tagged p29 fusion protein (p29^GFP) replaced the radioaffinity labeled native p29 (Farwell et al., 1990, J. Biol. Chem. 265:18546-18553; Farwell et al., 1993, J. Biol. Chem. 268:5055-5062). This allowed direct evaluation of the binding of fluorescent vesicles to F-actin without affinity radiolabeling of the p29 and subsequent SDS-PAGE analysis.
Specific fluorescence at 510 nm (excitation, 488 nm) was then determined in the resuspended Triton-insoluble pellets.
To determine if the myosin V tail could be captured by the p29^GFP vesicle, an exogenous myosin V^tail was introduced into astrocytes constitutively expressing p29^GFP by infection with Ad5-ΔMyo V^tail virus particles and examined the effects of T4 on the binding of the myosin V^tail to immunopurified p29^GFP vesicles. Astrocytes expressing p29^GFP were grown in serum-free media and treated for 16 hours with 1 mM bt2cAMP and 100 nM hydrocortisone. A separate pool of astrocytes was treated in serum-free media supplemented with 10 μM retinoic acid. Cells were collected by scraping, and lysed by two freeze-thaw cycles. […] Triton-soluble (vesicle) and Triton-insoluble (F-actin) fractions were separated by microflige centrifugation. Triton pellets were resuspended in 300 μl of PBS and fluorescence at 510 nm (excitation 488 nm) determined and relative fluorescence was reported as arbitrary units. Cells were treated with 10 nM T4 for twenty minutes and a Triton-soluble supernatant was prepared. Vesicles containing the p29^GFP were immunoprecipitated by anti-GFP IgG (2 μg/ml) and protein in the immunoprecipitates were resolved by SDS-PAGE. Immunoblot analysis of vesicle-associated myosin V was performed using the anti-myosin V antibody directed against the C-terminus.
The quantity of each mutant protein synthesized was determined by [^35 S]-methionine incorporation. Astrocytes expressing p29^GFP were grown in serum-free media and treated for 16 hours with […] bt2cAMP and 100 nM hydrocortisone. p29^GFP V-lysate and F-lysate were prepared as described herein. 100 μg aliquots of p29^GFP V-lysate and F-lysate were pre-incubated, in triplicate, for 20 minutes at 37° C. in the presence of individual Δ myosin V mutant proteins (˜2-3 pmol polypeptide/50 μl mixture) were added to the actin-binding assay and pre-incubated for 20 minutes at 37° C. T4 (10 nM) was then added, the mixtures incubated for 20 minutes at 37° C., and F-actin bound, fluorescent p29^GFP vesicles were then isolated in the Triton-insoluble pellet.
V lysates prepared from astrocytes over-expressing p29^GFP were pre-incubated for 30 minutes at room temperature with antisera raised against ΔTRα2, ΔTRα1, the C-terminus of MyoV (encoded by MyoV^tail, FIG. 5), the coiled-coil region of MyoV (encoded by MyoV^coil-coil, FIG. 5) and GFP (green fluorescent protein). T4 (10 nM) and actin fiber-containing F-lysate was then added, the mixtures incubated at 37° C. for 20 minutes, and the Triton-insoluble fraction isolated by centrifugation.

[2] = tested on: binding of p29 vesicles to F-actin; test: in vitro actin binding assay with BrAc[125I]T4-labeled p29 vesicles; format: biochemical, rat; conditions: 10 nM hormone, 20 minutes at 37° C.
Procedure: Actin binding of the p29 vesicles was then initiated by addition of 10 nM T4, and the Triton-insoluble (F-actin bound) pellet was separated from the Triton-soluble (vesicle) fraction.
An in vitro binding assay was developed whose principle is based on the hormone dependent redistribution of affinity labeled p29 between the Triton-soluble (vesicle pool) and Triton-insoluble (F-actin cytoskeleton) fractions. The assay was used to examine the hormone dependent relationship between the p29-containing endosome and the F-actin cytoskeleton. Two different pools of astrocytes were prepared. […] The other astrocyte pool was used to prepare affinity BrAc [^125 I]T4-labeled p29 vesicles from thyroid-deficient cells (V-lysate; Farwell et al. 1990, J. Biol. Chem. 265:18546-18553). V-lysates were prepared from cAMP-stimulated astrocytes grown in serum-free media that were labeled with 2 nM BrAc[^125 I]T4 as described in Farwell et al. (1990, J. Biol. Chem. 265:18546-18553). […]
After the incubation, the mixtures were chilled on ice for 2 minutes, then Triton X-100® (0.5% v/v, final) was added and the soluble (Triton supernatant, vesicles) and insoluble (Triton pellet, F-actin) fractions were separated by microfuge centrifugation at 4° C. for 5 minutes. The distribution of [^125 I]-labeled p29 was then determined by SDS PAGE analysis.

astrocytes = test: subcellular distribution of immunoreactive TRα2-derived proteins in cultured astrocytes; format: cell-based, rat; conditions: serum-free medium, treated 20 minutes, 0.1% bovine serum albumin carrier
Excerpt: The subcellular distribution of immunoreactive thyroid hormone receptor-derived proteins in primary brain cell cultures and in cultured astrocytes was examined. Primary brain cell cultures were fixed with 0.4% paraformaldehyde, permeabilized with Triton X-100®, and stained for TRα-derived proteins using specific antisera directed against the unique C-termini of TRα1 and TRα2 proteins, and visualized by staining with a secondary tagged antibody. Consistent with previous observations (Kolodny et al., 1985, Endocrinol. 117: 1848-1857), immunoreactive TRα1 proteins were found in the nuclei of astrocytes and neuronal cells. However, TRα2-derived proteins were not localized to the nucleus in either astrocytes or neurons, but appeared as donut shaped structures located throughout the astrocyte or as discreet punctate signals along neuronal fibers. This latter pattern is diagnostic for synapses in neuronal cultures (Wong et al., 1999, Neurosci. 89:221-233), and is consistent with the presence of ΔTRα2-derived protein in nerve terminals.
The subcellular distribution of immunoreactive TRα2-derived proteins in cultured astrocytes was influenced by the presence of either T4 or rT3. In these experiments astrocytes were grown in serum-free medium, treated for 20 minutes with either […] or rT3, and fixed, permeabilized, and stained as described above. […]

Compound: N[C@@H](Cc1cc(I)c(Oc2cc(I)c(O)c(I)c2)c(I)c1)C(=O)O [T4, thyroxine]
- EC50 [1]: ~0.5 nM
- radiolabeled p29 bound to the Triton insoluble, F-actin fraction [2]: more than 70%
- subcellular distribution of TRα2-derived proteins (astrocytes): coalescence of the TRα2-derived proteins around the perinuclear space
